Test results: patent publication US20240368135A1 (VERTEX PHARMACEUTICALS INCORPORATED, priority 2021, published 2024)

Target: human NaV 1.8 (Homo sapiens, UniProt Q9Y5Y9)
Assay: E-VIPR assay detecting and measuring NaV inhibition properties
Type: cell-based
Settings: HEK cells expressing truncated human NaV 1.8; no human serum; read-out: IC50 in the E-VIPR Assay
Method in brief: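 HEK cells expressing truncated, fully active human NaV1.8, with KIR2.1 BacMam co-transduction, were loaded with CC2-DMPE/DiSBAC6(3) voltage-sensing dyes for 20 min at room temperature. Compounds were tested in 11-point 3-fold dilutions (300 nM top final), optionally with 25% human serum, under electrical stimulation with FRET read-out.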

human NaV 1.8, sequence (Q9Y5Y9 126-399 limits assumed): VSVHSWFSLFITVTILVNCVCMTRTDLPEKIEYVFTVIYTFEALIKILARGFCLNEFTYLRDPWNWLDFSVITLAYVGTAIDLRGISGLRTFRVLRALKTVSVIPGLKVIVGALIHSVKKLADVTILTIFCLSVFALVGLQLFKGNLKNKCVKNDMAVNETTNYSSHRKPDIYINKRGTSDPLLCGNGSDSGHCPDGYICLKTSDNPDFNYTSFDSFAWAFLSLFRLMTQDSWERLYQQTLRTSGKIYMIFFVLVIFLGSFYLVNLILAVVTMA
human NaV 1.8, sequence (Q9Y5Y9 660-890 limits assumed): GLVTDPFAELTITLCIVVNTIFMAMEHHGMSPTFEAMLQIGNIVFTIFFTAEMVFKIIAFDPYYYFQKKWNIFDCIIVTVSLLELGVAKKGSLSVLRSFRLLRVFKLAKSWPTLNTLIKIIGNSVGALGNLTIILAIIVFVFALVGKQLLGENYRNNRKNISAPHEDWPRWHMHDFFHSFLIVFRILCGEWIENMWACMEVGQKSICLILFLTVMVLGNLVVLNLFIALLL
human NaV 1.8, sequence (Q9Y5Y9 1148-1722 limits assumed): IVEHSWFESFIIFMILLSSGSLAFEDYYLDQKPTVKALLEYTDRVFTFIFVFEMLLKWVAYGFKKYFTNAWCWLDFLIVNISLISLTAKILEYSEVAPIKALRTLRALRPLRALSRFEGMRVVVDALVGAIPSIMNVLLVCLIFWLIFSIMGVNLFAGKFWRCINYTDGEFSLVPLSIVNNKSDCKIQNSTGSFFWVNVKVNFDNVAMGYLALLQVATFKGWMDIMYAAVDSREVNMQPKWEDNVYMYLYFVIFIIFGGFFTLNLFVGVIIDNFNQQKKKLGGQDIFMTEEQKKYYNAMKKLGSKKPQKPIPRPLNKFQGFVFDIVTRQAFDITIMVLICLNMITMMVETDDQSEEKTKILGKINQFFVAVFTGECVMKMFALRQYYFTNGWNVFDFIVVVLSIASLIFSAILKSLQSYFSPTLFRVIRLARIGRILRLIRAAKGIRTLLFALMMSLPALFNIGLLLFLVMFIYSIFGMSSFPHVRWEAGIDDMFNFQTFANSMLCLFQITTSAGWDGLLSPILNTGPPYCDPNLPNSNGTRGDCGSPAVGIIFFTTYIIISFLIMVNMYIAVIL

Row | SMILES | IC50
1 | COc1c([C@H]2[C@H](C(=O)Nc3ccnc(C4(N)CCOC4)c3)O[C@@](C)(C(F)(F)F)[C@H]2C)ccc(F)c1F (single isomer, unassigned) [Compound 347, rel-(2R*,3S*,4S*,5R*)-N-(2-(3-aminotetrahydrofuran-3-yl)pyridin-4-yl)-3-(3,4-difluoro-2-methoxyphenyl)-4,5-dimethyl-5-(trifluoromethyl)-tetrahydrofuran-2-carboxamide] | 10 to 100 nM
2 | COc1c([C@H]2[C@H](C(=O)Nc3cc(C4(N)CCOC4)ncc3F)O[C@@](C)(C(F)(F)F)[C@H]2C)ccc(F)c1F (single isomer, unassigned) [Compound 348, rel-(2R*,3S*,4S*,5R*)-N-(2-(3-aminotetrahydrofuran-3-yl)-5-fluoropyridin-4-yl)-3-(3,4-difluoro-2-methoxyphenyl)-4,5-dimethyl-5-(trifluoromethyl)-tetrahydrofuran-2-carboxamide] | 10 to 100 nM
3 | COc1c([C@H]2[C@H](C(=O)Nc3cc(C4CNCCO4)ncc3F)O[C@@](C)(C(F)(F)F)[C@H]2C)ccc(F)c1F (single isomer, unassigned) [Compound 350, rel-(2R*,3S*,4S*,5R*)-3-(3,4-difluoro-2-methoxyphenyl)-N-(5-fluoro-2-(morpholin-2-yl)pyridin-4-yl)-4,5-dimethyl-5-(trifluoromethyl)-tetrahydrofuran-2-carboxamide] | 10 to 100 nM
4 | COc1c([C@H]2[C@H](C(=O)Nc3cc(C(N)C(C)(C)OC)ncc3F)O[C@@](C)(C(F)(F)F)[C@H]2C)ccc(F)c1F (single isomer, unassigned) [Compound 356, rel-(2R*,3S*,4S*,5R*)-N-(2-(1-amino-2-methoxy-2-methylpropyl)-5-fluoropyridin-4-yl)-3-(3,4-difluoro-2-methoxyphenyl)-4,5-dimethyl-5-(trifluoromethyl)-tetrahydrofuran-2-carboxamide] | 10 to 100 nM
5 | COc1c([C@H]2[C@H](C(=O)Nc3cc(C4CN(C)CCO4)ncc3F)O[C@@](C)(C(F)(F)F)[C@H]2C)ccc(F)c1F (single isomer, unassigned) [Compound 367, rel-(2R*,3S*,4S*,5R*)-3-(3,4-difluoro-2-methoxyphenyl)-N-(5-fluoro-2-(4-methylmorpholin-2-yl)pyridin-4-yl)-4,5-dimethyl-5-(trifluoromethyl)tetrahydrofuran-2-carboxamide] | 10 to 100 nM
6 | COc1c([C@H]2[C@H](C(=O)Nc3ccnc(C(CO)N(C)C)c3)O[C@@](C)(C(F)(F)F)[C@H]2C)ccc(F)c1F (single isomer, unassigned) [Compound 368] | < 10 nM
7 | COc1c([C@H]2[C@H](C(=O)Nc3cc(C(O)CN(C)C)ncc3F)O[C@@](C)(C(F)(F)F)[C@H]2C)ccc(F)c1F (single isomer, unassigned) [Compound 370, rel-(2R*,3S*,4S*,5R*)-3-(3,4-difluoro-2-methoxyphenyl)-N-(2-(2-(dimethylamino)-1-hydroxyethyl)-5-fluoropyridin-4-yl)-4,5-dimethyl-5-(trifluoromethyl)tetrahydrofuran-2-carboxamide] | < 10 nM
8 | COc1c([C@H]2[C@H](C(=O)Nc3cc(C(O)CN4CCOCC4)ncc3F)O[C@@](C)(C(F)(F)F)[C@H]2C)ccc(F)c1F (single isomer, unassigned) [Compound 371, rel-(2R*,3S*,4S*,5R*)-3-(3,4-difluoro-2-methoxyphenyl)-N-(5-fluoro-2-(1-hydroxy-2-morpholinoethyl)pyridin-4-yl)-4,5-dimethyl-5-(trifluoromethyl)tetrahydrofuran-2-carboxamide] | 10 to 100 nM
9 | COc1c([C@H]2[C@H](C(=O)Nc3cc(C(O)CN(C)C)ncc3F)O[C@@](C)(C(F)(F)F)[C@H]2C)ccc(F)c1F (single isomer, unassigned) [Compound 377] | < 10 nM
10 | COCC(c1ccc(NC(=O)[C@@H]2O[C@@](C)(C(F)(F)F)[C@@H](C)[C@H]2c2ccc(F)c(F)c2OC)cn1)N1CCC1 (single isomer, unassigned) [Compound 407, rel-(2R*,3S*,4S*,5R*)-N-(6-(1-(azetidin-1-yl)-2-methoxyethyl)-pyridin-3-yl)-3-(3,4-difluoro-2-methoxyphenyl)-4,5-dimethyl-5-(trifluoromethyl)-tetrahydrofuran-2-carboxamide] | ≥ 1000 nM

Results, then the compound that gave them:

Row | IC50 | SMILES
11 | < 10 nM | COc1c([C@H]2[C@H](C(=O)Nc3cc(C4(N)CCOC4)ncc3F)O[C@@](C)(C(F)(F)F)[C@H]2C)ccc(F)c1F (single isomer, unassigned) [Compound 349, rel-(2R*,3S*,4S*,5R*)-N-(2-(3-aminotetrahydrofuran-3-yl)-5-fluoropyridin-4-yl)-3-(3,4-difluoro-2-methoxyphenyl)-4,5-dimethyl-5-(trifluoromethyl)-tetrahydrofuran-2-carboxamide]
12 | < 10 nM | COCC(C)(N)c1cc(NC(=O)[C@@H]2O[C@@](C)(C(F)(F)F)[C@@H](C)[C@H]2c2ccc(F)c(F)c2OC)ccn1 (single isomer, unassigned) [Compound 352, rel-(2R*,3S*,4S*,5R*)-N-(2-(2-amino-1-methoxypropan-2-yl)pyridin-4-yl)-3-(3,4-difluoro-2-methoxyphenyl)-4,5-dimethyl-5-(trifluoromethyl)-tetrahydrofuran-2-carboxamide]
13 | < 10 nM | COCC(C)(N)c1cc(NC(=O)[C@@H]2O[C@@](C)(C(F)(F)F)[C@@H](C)[C@H]2c2ccc(F)c(F)c2OC)c(F)cn1 (single isomer, unassigned) [Compound 354, rel-(2R*,3S*,4S*,5R*)-N-(2-(2-amino-1-methoxypropan-2-yl)-5-fluoropyridin-4-yl)-3-(3,4-difluoro-2-methoxyphenyl)-4,5-dimethyl-5-(trifluoromethyl)-tetrahydrofuran-2-carboxamide]
14 | < 10 nM | COc1c([C@H]2[C@H](C(=O)Nc3ccnc(C(C)(N)CO)c3)O[C@@](C)(C(F)(F)F)[C@H]2C)ccc(F)c1F (single isomer, unassigned) [Compound 358, rel-(2R*,3S*,4S*,5R*)-N-(2-(2-amino-1-hydroxypropan-2-yl)pyridin-4-yl)-3-(3,4-difluoro-2-methoxyphenyl)-4,5-dimethyl-5-(trifluoromethyl)-tetrahydrofuran-2-carboxamide]
15 | < 10 nM | COc1c([C@H]2[C@H](C(=O)Nc3cc(C(C)(N)CO)ncc3F)O[C@@](C)(C(F)(F)F)[C@H]2C)ccc(F)c1F (single isomer, unassigned) [Compound 360]
16 | < 10 nM | COc1c([C@H]2[C@H](C(=O)Nc3ccnc(C4COCCN4C)c3)O[C@@](C)(C(F)(F)F)[C@H]2C)ccc(F)c1F (single isomer, unassigned) [Compound 364, rel-(2R*,3S*,4S*,5R*)-3-(3,4-difluoro-2-methoxyphenyl)-4,5-dimethyl-N-(2-(4-methylmorpholin-3-yl)pyridin-4-yl)-5-(trifluoromethyl)tetrahydrofuran-2-carboxamide]
17 | < 10 nM | COc1c([C@H]2[C@H](C(=O)Nc3cc(C4CN(C)CCO4)ncc3F)O[C@@](C)(C(F)(F)F)[C@H]2C)ccc(F)c1F (single isomer, unassigned) [Compound 366, rel-(2R*,3S*,4S*,5R*)-3-(3,4-difluoro-2-methoxyphenyl)-N-(5-fluoro-2-(4-methylmorpholin-2-yl)pyridin-4-yl)-4,5-dimethyl-5-(trifluoromethyl)tetrahydrofuran-2-carboxamide]
